From patent publication US20230135093A1, “TRIAZOLYL DERIVATIVES AS GABA A ALPHA5 PAM” (Hoffmann-La Roche Inc., priority 2020, published 2023)

What was measured:
[1] = target: T1, h-GABA-A α5β3γ2 (Homo sapiens, UniProt P18507+P31644); assay: Two-electrode voltage clamp electrophysiology in Xenopus oocytes expressing GABAA receptors (modulation of GABA EC20 current); assay type: cell-based; conditions: Table 1; for Efficacy (GABA) %: % modulation of GABA EC20 = 100*(Fold increase-1); for Fold increase h-GABA-A α5β3γ2 oocyte: Xenopus oocytes, GABA EC20, test compound at approximatively 30 fold its Ki
T1 construct: expressed in transfected cells; host or cells: Xenopus laevis oocytes, micro-injected with subunit RNA
In short: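 GABA EC20 currents in human α5β3γ2-expressing Xenopus oocytes, voltage-clamped at −80 mV (room temperature, pH 7.4), measured with and without compound at ~30× Ki applied 0.5 min into the second GABA pulse. % modulation = 100×(fold increase−1), taken from the extremum of the current ratio trace; at least 3 oocytes per concentration.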

[2] = target: T1, h-GABA-A α5β3γ2; assay: [3H]flumazenil competition binding assay on membranes of HEK293 cells expressing GABAA receptors; conditions: Table 1; displacement of [3H]-Flumazenil (0.5 nM), HEK293 cells expressing human receptors, means of two determinations
In short: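 Competition for [3H]flumazenil (0.5 nM for α5 subunits) was measured at equilibrium (1 h, 4 °C, Krebs-tris buffer pH 7.5) on transiently transfected HEK293 membranes bearing human α5β3γ2 receptors, with 10^−5 M diazepam defining nonspecific binding. Ki values were derived from filtration and scintillation counting, averaged over duplicates.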

SMILES | Efficacy (GABA) % [1] | Fold increase h-GABA-A α5β3γ2 oocyte [1] | Ki [2]
CCOC1CN(c2cnn(Cc3c(-c4ccc(Cl)cc4F)nnn3CC)c(=O)c2)C1 [Example 91, 2-[[5-(4-chloro-2-fluoro-phenyl)-3-ethyl-triazol-4-yl]methyl]-5-(3-ethoxyazetidin-1-yl)pyridazin-3-one] | 128% | 2.28 | 18.2 nM
CC(C)N1CCN(c2cnn(Cc3c(-c4ccc(C(F)(F)F)cc4F)nnn3C)c(=O)c2)C[C@@H]1C [Example 94, 2-[[5-[2-fluoro-4-(trifluoromethyl)phenyl]-3-methyl-triazol-4-yl]methyl]-5-[(3S)-4-isopropyl-3-methyl-piperazin-1-yl]pyridazin-3-one] | 127% | 2.27 | 10.4 nM
Cn1nnc(-c2ccc(Cl)cc2F)c1Cn1ncc(N2CC3(CCCCO3)C2)cc1=O [Example 95, 2-[[5-(4-chloro-2-fluoro-phenyl)-3-methyl-triazol-4-yl]methyl]-5-(5-oxa-2-azaspiro[3.5]nonan-2-yl)pyridazin-3-one] | 58% | 1.58 | 11.1 nM
Cn1nnc(-c2ccc(Cl)cc2F)c1Cn1ncc(N2CC(OC(C)(C)C)C2)cc1=O [Example 96, 5-(3-tert-butoxyazetidin-1-yl)-2-[[5-(4-chloro-2-fluoro-phenyl)-3-methyl-triazol-4-yl]methyl]pyridazin-3-one] | 54% | 1.54 | 20.4 nM
CCn1nnc(-c2ccc(Cl)cc2F)c1Cn1ncc(N2CC(OC(C)(C)C)C2)cc1=O [Example 97, 5-(3-tert-butoxyazetidin-1-yl)-2-[[5-(4-chloro-2-fluoro-phenyl)-3-ethyl-triazol-4-yl]methyl]pyridazin-3-one] | 115% | 2.15 | 45.1 nM
Cn1nnc(-c2ccc(Cl)cc2F)c1Cn1ncc(N2CC(Oc3ccnc(C(F)(F)F)n3)C2)cc1=O [Example 100, 2-[[5-(4-chloro-2-fluoro-phenyl)-3-methyl-triazol-4-yl]methyl]-5-[3-[2-(trifluoromethyl)pyrimidin-4-yl]oxyazetidin-1-yl]pyridazin-3-one] | 79% | 1.79 | 15.9 nM
CCn1nnc(-c2ccc(Cl)cc2F)c1Cn1ncc(N2CC(Oc3cccnn3)C2)cc1=O [Example 102, 2-[[5-(4-chloro-2-fluoro-phenyl)-3-ethyl-triazol-4-yl]methyl]-5-(3-pyridazin-3-yloxyazetidin-1-yl)pyridazin-3-one] | 164% | 2.64 | 20.2 nM
CCOc1ccc(-c2cnn(Cc3c(-c4ccc(Cl)cc4F)nnn3C)c(=O)c2)cn1 [Example 103, 2-((5-(4-chloro-2-fluoro-phenyl)-3-methyl-triazol-4-yl)methyl)-5-(6-ethoxy-3-pyridyl)pyridazin-3-one] | 106% | 2.06 | 10.4 nM
COc1ncc(-c2cnn(Cc3c(-c4ccc(Cl)cc4F)nnn3C)c(=O)c2)cc1C [Example 104, 2-((5-(4-chloro-2-fluoro-phenyl)-3-methyl-triazol-4-yl)methyl)-5-(6-methoxy-5-methyl-3-pyridyl)pyridazin-3-one] | 158% | 2.58 | 11.8 nM
CCn1nnc(-c2ccc(Cl)cc2F)c1Cn1ncc(-c2cnn(C3CC3)c2)cc1=O [Example 105, 2-((4-(4-chloro-2-fluorophenyl)-1-ethyl-1H-1,2,3-triazol-5-yl)methyl)-5-(1-cyclopropyl-1H-pyrazol-4-yl)pyridazin-3(2H)-one] | 111% | 2.11 | 17.2 nM
Cn1nnc(-c2ccc(Cl)cc2F)c1Cn1ncc(-c2cnn(CC(F)F)c2)cc1=O [Example 106, 2-((5-(4-chloro-2-fluoro-phenyl)-3-methyl-triazol-4-yl)methyl)-5-(1-(2,2-difluoro-ethyl)pyrazol-4-yl)pyridazin-3-one] | 72% | 1.72 | 11.4 nM
COc1cc(-c2cnn(Cc3c(-c4ccc(Cl)cc4F)nnn3C)c(=O)c2)cnc1Cl [Example 108, 2-((5-(4-chloro-2-fluoro-phenyl)-3-methyl-triazol-4-yl)methyl)-5-(6-chloro-5-metlioxy-3-pyridyl)pyridazin-3-one] | 46% | 1.46 | 16.8 nM
CCn1nnc(-c2ccc(Cl)cc2F)c1Cn1ncc(-c2cccc(C#N)n2)cc1=O [Example 111, 6-(1-((4-(4-chloro-2-fluorophenyl)-1-ethyl-1H-1,2,3-triazol-5-yl)methyl)-6-oxo-1,6-dihydropyridazin-4-yl)picolinonitrile] | 290% | 3.9 | 23.8 nM
C[C@@H]1CN(c2cnn(Cc3c(-c4ccc(Cl)nc4)nnn3C)c(=O)c2)C[C@H](C)O1 [Example 112, 2-[[5-(6-chloro-3-pyridyl)-3-methyl-triazol-4-yl]methyl]-5-[(2S,6R)-2,6-dimethylmorpholin-4-yl]pyridazin-3-one] | 228% | 3.28 | 12.8 nM
Cc1ccnn1C1CN(c2cnn(Cc3c(-c4ccc(Cl)cc4F)nnn3C)c(=O)c2)C1 [Example 113, 2-[[5-(4-chloro-2-fluoro-phenyl)-3-methyl-triazol-4-yl]methyl]-5-[3-(5-methylpyrazol-1-yl)azetidin-1-yl]pyridazin-3-one] | 98% | 1.98 | 48.5 nM
CCOC1CN(c2cnn(Cc3c(-c4ncc(C(F)(F)F)cn4)nnn3C)c(=O)c2)C1 [Example 115, 5-(3-ethoxyazetidin-1-yl)-2-[[3-methyl-5-[5-(trifluoromethyl)pyrimidin-2-yl]triazol-4-yl]methyl]pyridazin-3-one] | 74% | 1.74 | 47.4 nM

Stronger by Ki [2], values ahead:

Efficacy (GABA) % [1] | Fold increase h-GABA-A α5β3γ2 oocyte [1] | Ki [2] | SMILES
159% | 2.59 | 5.6 nM | CCn1nnc(-c2ccc(Cl)cc2F)c1Cn1ncc(N2CCN(C(C)C)[C@@H](C)C2)cc1=O [Example 92, 2-[[5-(4-chloro-2-fluoro-phenyl)-3-ethyl-triazol-4-yl]methyl]-5-[(3S)-4-isopropyl-3-methyl-piperazin-1-yl]pyridazin-3-one]
79% | 1.79 | 9.4 nM | Cn1nnc(-c2ccc(C(F)(F)F)cc2F)c1Cn1ncc(N2CC(Oc3ccc(Cl)nc3)C2)cc1=O [Example 93, 5-[3-[(6-chloro-3-pyridyl)oxy]azetidin-1-yl]-2-[[5-[2-fluoro-4-(trifluoromethyl)phenyl]-3-methyl-triazol-4-yl]methyl]pyridazin-3-one]
58% | 1.58 | 8 nM | Cn1nnc(-c2ccc(Cl)cc2F)c1Cn1ncc(N2CC(Oc3cncc(C(F)(F)F)n3)C2)cc1=O [Example 98, 2-[[5-(4-chloro-2-fluoro-phenyl)-3-methyl-triazol-4-yl]methyl]-5-[3-[6-(trifluoro-methyl)pyrazin-2-yl]oxyazetidin-1-yl]pyridazin-3-one]
86% | 1.86 | 4.6 nM | Cc1nccc(OC2CN(c3cnn(Cc4c(-c5ccc(Cl)cc5F)nnn4C)c(=O)c3)C2)n1 [Example 99, 2-[[5-(4-chloro-2-fluoro-phenyl)-3-methyl-triazol-4-yl]methyl]-5-[3-(2-methylpyrimidin-4-yl)oxyazetidin-1-yl]pyridazin-3-one]
126% | 2.26 | 9.2 nM | CCn1nnc(-c2ccc(Cl)cc2F)c1Cn1ncc(N2CC(Oc3ccc(Cl)nc3)C2)cc1=O [Example 101, 2-[[5-(4-chloro-2-fluoro-phenyl)-3-ethyl-triazol-4-yl]methyl]-5-[3-[(6-chloro-3-pyridyl)oxy]azetidin-1-yl]pyridazin-3-one]
234% | 3.34 | 9 nM | Cn1nnc(-c2ccc(Cl)cc2F)c1Cn1ncc(-c2cccc(C#N)n2)cc1=O [Example 107, 6-(1-((5-(4-chloro-2-fluoro-phenyl)-3-methyl-triazol-4-yl)methyl)-6-oxo-pyridazin-4-yl)pyridine-2-carbonitrile]
75% | 1.75 | 1.1 nM | C[C@@H]1CCCN1c1cnn(Cc2c(-c3ccc(Cl)nc3)nnn2C)c(=O)c1 [Example 109, 2-[[5-(6-chloro-3-pyridyl)-3-methyl-triazol-4-yl]methyl]-5-[(2R)-2-methylpyrrolidin-1-yl]pyridazin-3-one]
139% | 2.39 | 8.8 nM | CCn1nnc(-c2ccc(Cl)cc2F)c1Cn1ncc(-c2cnc(OC)c(Cl)c2)cc1=O [Example 110, 2-((4-(4-chloro-2-fluorophenyl)-1-ethyl-1H-1,2,3-triazol-5-yl)methyl)-5-(5-chloro-6-methoxypyridin-3-yl)pyridazin-3(2H)-one]
154% | – | 3.6 nM | COc1ncc(-c2cnn(Cc3c(-c4ccc(C)nn4)nnn3C)c(=O)c2)cc1Cl [Example 114, 5-(5-chloro-6-methoxy-3-pyridyl)-2-[[3-methyl-5-(6-methylpyridazin-3-yl)triazol-4-yl]methyl]pyridazin-3-one]
